According to ChEMBL document CHEMBL5647693, “Molecular basis underlying resistance to Mps1/TTK inhibitors” (Oncogene, 2016):

Key:
Assay in all cases: cells
Format in all cases: functional, cell-based
HeLa [1] = settings: Homo sapiens, 120 h
HeLa [2] = settings: Homo sapiens, 120 h; remark: listed apart in the source
HCT-116 [3] = settings: Homo sapiens, HCT-116, 120 h
DLD-1 [4] = settings: Homo sapiens, DLD-1, 120 h
DLD-1 [5] = settings: Homo sapiens, DLD-1, 120 h; remark: listed apart in the source
HCT-116 [6] = settings: Homo sapiens, HCT-116, 120 h; remark: listed apart in the source
DLD-1 [7] = settings: Homo sapiens, DLD-1, 120 h; remark: listed apart in the source
HeLa [8] = settings: Homo sapiens, 120 h; remark: listed apart in the source
U2OS = settings: Homo sapiens, 120 h
HCT-116 [9] = settings: Homo sapiens, HCT-116, 120 h; remark: listed apart in the source
HCT-116 [10] = settings: Homo sapiens, HCT-116, 120 h; remark: listed apart in the source
HeLa [11] = settings: Homo sapiens, 120 h; remark: listed apart in the source

| IC50 (HeLa [1]) | IC50 (HeLa [2]) | IC50 (DLD-1 [4]) | IC50 (HCT-116 [6]) | IC50 (DLD-1 [7]) | IC50 (HeLa [8]) | IC50 (HCT-116 [9]) | IC50 (HCT-116 [10]) | IC50 (HeLa [11]) | Compound | IC50 (HCT-116 [3]) | IC50 (DLD-1 [5]) | IC50 (U2OS) |
| --- | --- | --- | --- | --- | --- | --- | --- | --- | --- | --- | --- | --- |
| 0.468 µM | > 2 µM | > 2 µM | > 2 µM | 0.183 µM | > 2 µM | 0.159 µM | 1.08 µM | 0.282 µM | Cc1cc(N2CCOCC2)ccc1Nc1nc(NC2CCCCC2)c2nc[nH]c2n1 | 0.063 µM | 0.0754 µM | 0.106 µM |
| 4.79 µM | 6.79 µM | 7.93 µM | 5.4 µM | 2.42 µM | 8.97 µM | 1.62 µM | 3.23 µM | 3.42 µM | COc1cc(N2CCC(O)CC2)ccc1Nc1nc(Nc2ccccc2S(=O)(=O)C(C)C)c2nc[nH]c2n1 | – | – | – |

| Compound | IC50 (HeLa [1]) | IC50 (HeLa [2]) | IC50 (DLD-1 [4]) | IC50 (HCT-116 [6]) | IC50 (DLD-1 [7]) | IC50 (HeLa [8]) | IC50 (HCT-116 [9]) | IC50 (HCT-116 [10]) | IC50 (HeLa [11]) | IC50 (HCT-116 [3]) | IC50 (DLD-1 [5]) | IC50 (U2OS) |
| --- | --- | --- | --- | --- | --- | --- | --- | --- | --- | --- | --- | --- |
| c1nc2c(NC3CCCCC3)nc(Nc3ccc(N4CCOCC4)cc3)nc2[nH]1 [REVERSINE] | 0.431 µM | 0.125 µM | > 2 µM | 0.07 µM | 0.136 µM | 0.116 µM | 0.138 µM | 0.53 µM | 0.29 µM | 0.0789 µM | 0.12 µM | 0.154 µM |
